Like-named read-outs stand apart in the source and are kept apart here.
Key:
HUVEC = test: MTT cell proliferation assay, HUVEC; type: cell-based; conditions: Homo sapiens, normal cells, read-out: Cell killing activity IC50
Description: (§1) Cells were plated in 96-well tissue culture plates at a density of 1 × 10^3 cells/well, allowed to attach 24 h, and then left untreated or treated with growth medium containing different concentrations of the tested RCn compounds previously dissolved in PBS. After different time periods the cell vitality was determined by MTT assay according to the manufacture’s instruction (Promega). Results are reported as the micromolar concentration of RCn reducing cell survival to 50% (IC50).

[1] = test system: adult tumor cell lines (A549, MDA-MB-231, WiDr); test: MTT cell killing, adult tumor cell lines (summary); type: cell-based; conditions: Homo sapiens, summary of Table II
Description: as §1

[2] = test system: human keratinocytes, human fibroblasts and HUVEC; test: MTT cell killing, normal versus tumor cells (summary); type: cell-based
Description: as §1

SH-SY5Y cells = test: Caspase activation (western blot, fluorimetric assay); type: cell-based
Description: Cells with or without RCn treatment were washed with PBS and lysed on ice for 30 min in lysis buffer containing protease and phosphatase inhibitors. Protein concentrations were determined with the Bio-Rad protein assay kit. 50 μg of total protein was separated on 12% SDS-PAGE at 100 V for 1 h and then transferred onto a nitrocellulose membrane using a wet blotting apparatus (Bio-Rad Laboratories) at 20 V overnight. Proteins were detected by enhanced chemiluminescence detection reagents (Amersham Biosciences). The antibodies used for immunoblotting were: caspases 3, 8, 9, and PARP were diluted 1:100 in blocking reagent (Cell Signaling Technology). The exposure time was the same for all the antibodies. Blots were stripped and reprobed with anti-β-tubulin diluted 1:10,000 in blocking reagent (Santacruz Biotechnology) used as the loading control.
Detection of caspase activity was evaluated by ApoFluor Green Apoptosis Detection kits specific for: caspase-1 and caspase-4; caspase-2, caspase-3 and caspase-7; caspase-6, caspase-8, caspase-9, caspase-10, and caspase-13 (MP Biochemicals), according to the manufacturer’s instructions. […] After 1 h incubation samples were washed and analyzed by flow cytometry (FACScan, Becton Dickinson) equipped with a 15-mW argon ion laser at 488 nm ([16]).

[3] = Pilot pharmacokinetic study in mice; type: in vivo, mouse; conditions: for AUC(0-t): read-out: AUC0-24
Description: To establish a standard assay for RC16 detection and the half-life of RC16 in murine blood, a basic pilot pharmacokinetic study was performed using 1 animal per timepoint. Non-tumor bearing, female, athymic nude mice were treated with RC16 by i.v. or p.o.at doses of 1 mg/kg and 2 mg/kg, respectively. At 2, 4, 6, 12, 24 and 48 h post RC16 administration, a single mouse was anesthetized in an induction chamber with 5.0% isoflurane and an O2 flow rate of 0.8 L/min. Each mouse was transferred to a nose cone supplying 5.0% isoflurane with a O2 flow rate of 0.8 L/min. After confirming sedation by testing hind footpads, each mouse was subjected to exsanguination by cardiac puncture. Blood samples were collected in BD Microtainers (BD, Franklin Lakes, NJ). Plasma was separated by centrifugation at 2000×g for 10 min at 4°C and stored at −80°C until analysis. The RC16 concentration in plasma was determined by liquid LC-MS/MS.
Chromatographic separation was achieved using a Thermo Scientific Accela UHPLC system with HTS PAL autosampler and an Agilent ZORBAX Extend C18 column (50 × 2.1 mm I.D, 3.5 μm particle size) with a C18 guard cartridge maintained at 35°C. A 6.0 min linear gradient program with water/0.3% formic acid as mobile phase A and acetonitrile/0.3% formic acid as mobile phase B at a constant flow rate of 400 μL/min was applied for elution: 0.0 min 25% B, 1.0 min 25% B, 3.0 min 95% B, 4.5 min 95% B, 4.6 min 25% B and 6.0 min 25% B. The autosampler sample draw was set to 4°C, and a divert valve was used (0.0–2.0 min) to prevent early eluting compounds from entering the MS. Selective reaction monitoring with unit resolution was used for MS detection under positive mode. Transition channels from the protonated molecular ion to selected product ion were 377.33 > 153.15 for RC16 and 251.20 > 153.15 for internal standard RC7, respectively. Parameters optimized with a direct infusion of analyte and IS using a syringe pump were as follows: spray voltage, 5000 V; sheath gas and auxiliary gas, 25 and 15 (arbitrary unit), respectively; capillary temperature, 325°C; collision gas pressure, 1.5mTorr and skimmer offset, 10 eV. Tube lens offset was 100 eV for both RC16 and RC7, respectively. Scan time was 0.03 s. Collision energies were 40 eV for RC16 and 33 eV for RC7. Thermo Scientific LCQuan software was employed for system control and data processing.

Neuro 2A = test: In vivo efficacy, metastatic model of murine neuroblastoma; design: species or system mouse
Description: An efficacy study was performed on an immunocompetent model of neuroblastoma. In this experiment A/J mice were i.v. injected with Neuro 2A (0.2 × 10^6 cells in 100 μL of PBS). After 5 days, the mice were randomized (six animals per group) and treated once with RC16 injected through the tail vein at doses of 20 μg or 40 μg/mouse or vehicle (PBS). After treatment animals were monitored for survival and endpoint criteria.
Endpoint criteria included tumor volume > 2000 mm3, body weight loss ≥ 20%, unusual mouse behavior, lack of movement and poor posture. Tumor size was measured using digital calipers on alternate days and tumor volume was calculated using the following formula: a x b^2 π/6 where a is the longest diameter and b is the shortest diameter. Mice were also weighed and observed 3 times per week for signs of endpoint condition.

CCCCCCCCCCCCCCC1CN2CCCN3CCCCCC132 (centres unmarked) [RC16, 2-tetradecyl-4,8-diazatricyclo[6.5.0.0^1,^4]tridecane]
IC50 (HUVEC; 24 h): 10.6 µM | IC50 (HUVEC; 48 h): 9.65 µM | IC50 [1]: 1 to 10 µM | IC50 for normal cells relative to tumor cells [2]: more than tenfold higher | Caspase activation, fluorimetric assay (caspases 1, 2, 3, 6, 8, 9, 10, 13) (SH-SY5Y cells; 5 μM RC16, 1-24 h): all the above caspases were activated already at 4 h | Caspase activation, western blot (SH-SY5Y cells; 5 μM RC16, 2-36 h): activation of caspases 3, 8 and 9 | half-life ([3]; female, athymic nude, mouse, plasma, iv, 1 mg/kg i.v., nude mice, read-out: Half-life (converted)): 5.4 h | bioavailability ([3]; female, athymic nude, mouse, plasma, po, 2 mg/kg, estimated from pilot pharmacokinetic data): ~6% | Cmax ([3]; female, athymic nude, mouse, plasma, 2 mg/kg oral, at 4 h, nude mice, read-out: Maximum observed plasma concentration (Cmax)): 12.5 ng/mL | half-life ([3]; female, athymic nude, mouse, plasma, 2 mg/kg oral, non-compartmental analysis, nude mice, read-out: Apparent half-life (converted)): 5.2 h | AUC(0-t) ([3]; female, athymic nude, mouse, plasma, IV, 1 mg/kg, nude mice): 1390 ng·h/mL | Cmax ([3]; female, athymic nude, mouse, plasma, IV, 1 mg/kg, nude mice, read-out: Cmax): 153 ng/mL | AUC(0-t) ([3]; female, athymic nude, mouse, plasma, PO, 2 mg/kg, nude mice): 160 ng·h/mL | concentration at 2 h ([3]; female, athymic nude, plasma, intravenous, 1 mg/kg i.v., 2 h, nude mice, 1 mouse per time point): 153 ng/mL | concentration at 24 h ([3]; female, athymic nude, plasma, intravenous, 1 mg/kg i.v., nude mice, 1 mouse per time point): 11.4 ng/mL | concentration at 24 h ([3]; female, athymic nude, plasma, 2 mg/kg oral, nude mice, 1 mouse per time point): 0.5 ng/mL | concentration at 48 h ([3]; female, athymic nude, plasma, 2 mg/kg oral, 48 h, nude mice, 1 mouse per time point): 4.6 ng/mL | Achieved plasma concentrations ([3]; i.v. dose of 1 mg/kg): 150 to 200 ng/mL | Mean survival time versus controls (Neuro 2A; A/J mice, single i.v. dose 20 μg or 40 μg/mouse): significant increase in the mean survival time | Treated mice healthy and alive, no macroscopic disease at necropsy (Neuro 2A; end of experiment (90 days), 20 μg or 40 μg/mouse i.v.): 3 of the 12

— publication PMC5040747, “Preparation and Evaluation of a Novel Class of Amphiphilic Amines as Antitumor Agents and Nanocarriers for Bioactive Molecules” (Pharmaceutical Research, 2016)
